According to article PMC4529466, “Intradermal insulin infusion achieves faster insulin action than subcutaneous infusion for 3-day wear” (Drug Delivery and Translational Research, 2015):

System: blood glucose
Assay: Postprandial blood glucose pharmacodynamics after meal bolus, 3-day ID vs SC infusion
Format: in vivo, human (T1DM patients)
Conditions: SC; for BGavg0–4 / BGmax0–4 / ΔAUC-BG0–4 / ΔBGmax0–4 / BG1 / ΔBG1 / BG1.5 / ΔBG1.5 / BG2 / ΔBG2 / BG4 / ΔBG4: mean ± SD; for BG1 / ΔBG1: at 1 h; for BG1.5 / ΔBG1.5: at 1.5 h; for BG2 / ΔBG2: at 2 h; for BG4 / ΔBG4: at 4 h
Excerpt: This was a single center, open-label, two-period crossover study, randomized by infusion order, in T1DM patients on continuous subcutaneous insulin infusion (CSII). The protocol was approved by an independent ethics committee (Ethikkommission der Ärztekammer Nordrhein, Düsseldorf, Germany), appropriate regulatory bodies (German Federal Institute for Drugs and Medical Devices (BfArM)), and conducted in compliance with good clinical practice (GCP), the Declaration of Helsinki, and applicable regulatory requirements.
The study was completed over a multi-week period consisting of three study visits: a screening visit (V1) and two interventional visits (V2 and V3). After establishing eligibility and enrollment, patients received treatment during two interventional visits: one SC and one ID basal/bolus infusion of insulin aspart (NovoRapid® U-100, Novo Nordisk, Copenhagen, Denmark) administered over 3 days in a randomized order.
Individual meal bolus doses were determined based on patient self-reported insulin to carbohydrate ratios and insulin sensitivity, historical self-reported insulin usage for meal coverage, and clinician review and adjustment of insulin usage during the in-clinic BG stabilization period the evening prior to the first morning meal. Basal insulin infusion rates were initiated based on the patient’s known daily delivery profile and could be adjusted by the clinician to maintain levels within 70–160 mg/dL according to a predetermined sliding scale and hourly changes in glycemia. A continuous glucose monitor (Seven Plus®, DexCom Inc., San Diego, CA) calibrated per manufacturer’s recommendations was applied to continuously monitor glycemia as a safety measure, in addition to periodic blood sampling for BG determination.
After maintaining targeted blood glucose range during the preceding night, bolus insulin doses were administered via the respective infusion catheter prior to standardized breakfast and lunch test meals on each of the three treatment days. Each meal insulin bolus was calculated based on the patient’s insulin sensitivity and previous hours change in BG per sliding scale then delivered immediately prior to breakfast (t = 0 min) and lunch (t = 360 min) consumption. Breakfast was a high glycemic index (60 g carbohydrates) solid meal, and lunch was a mixed meal based on the individual’s calculated daily energy intake and equivalent in caloric composition by day. Breakfast and lunch meals were consumed within 15 min followed by serial blood sampling with BG monitoring for a period of 6 and 4 h, respectively. Patients were asked to remain sedentary for 2 h after meals. Identical study procedures were utilized for the remaining dosing visit days (Fig. 2).
To assess insulin absorption kinetics and glycemic response, blood samples for measurements of insulin aspart and blood glucose in serum were drawn at predefined time points throughout dosing visits. Serial samples for safety BG determination, but not PK analysis, were obtained at a minimum every 2 h. Meal PK/PD analysis samples were acquired immediately pre-bolus and for 4–6 h post-bolus for breakfast and lunch meals, with a higher frequency during the first 2 h to capture insulin and BG peak levels {Post-bolus breakfast time points (min): 0, 10, 15, 20, 25, 30, 35, 40, 45, 50, 55, 60, 65, 70, 80, 90, 120, 150, 180, 210, 240, 300, 330, 360; Post-bolus lunch time points (min): 0, 10, 20, 30, 40, 50, 60, 70, 80, 90, 120, 180, 240, 300}. Sampling times were based on previous clinical study experience for bolus microneedle insulin delivery and had increased sampling frequency in the first 90 min post-delivery to capture the rapid insulin peaks from microneedle ID delivery. Blood samples for evening meal and basal period PK assessment could not be obtained due to daily blood draw volume limits for patient safety. Serum insulin aspart was measured by a third party laboratory (IKFE GmbH, Mainz, Germany) using a validated insulin assay (Invitron ELISA kit). […]

[1] = 0–2 h, across all study days and meals
[2] = 0–4 h, Days 1–3 combined, all test meals, n = 150–156
[3] = Days 1–3 combined, all test meals, n = 150–156

insulin aspart
Intra-subject variability of BGavg [1]: 19.3 %CV | Intra-subject variability of BGmax [1]: 18.5 %CV | BGavg0–4 (0–4 h, Day 1, across meals): 142 ± 41.2 mg/dL | BGmax0–4 (0–4 h, Day 1, across meals): 179 ± 44.4 mg/dL | ΔAUC-BG0–4 (0–4 h, Day 1, across meals): 133 ± 160 mg·h/dL | ΔBGmax0–4 (0–4 h, Day 1, across meals): 76.5 ± 54.6 mg/dL | BGavg0–4 (0–4 h, Day 2, across meals): 155 ± 44.0 mg/dL | BGmax0–4 (0–4 h, Day 2, across meals): 193 ± 49.3 mg/dL | ΔAUC-BG0–4 (0–4 h, Day 2, across meals): 140 ± 157 mg·h/dL | ΔBGmax0–4 (0–4 h, Day 2, across meals): 72.3 ± 40.0 mg/dL | BGavg0–4 (0–4 h, Day 3, across meals): 156 ± 40.1 mg/dL | BGmax0–4 (0–4 h, Day 3, across meals): 194 ± 41.7 mg/dL | ΔAUC-BG0–4 (0–4 h, Day 3, across meals): 154 ± 148 mg·h/dL | ΔBGmax0–4 (0–4 h, Day 3, across meals): 76.2 ± 40.4 mg/dL | BGavg0–4 [2]: 151 ± 42.0 mg/dL | BGmax0–4 [2]: 188 ± 45.4 mg/dL | ΔAUC-BG0–4 [2]: 142 ± 155 mg·h/dL | ΔBGmax0–4 [2]: 75.0 ± 45.6 mg/dL | Intra-subject variability of BGmax (0–4 h, across all study days and meals): 18.0 %CV | BG1 (Day 1, across meals): 158 ± 43.8 mg/dL | ΔBG1 (Day 1, across meals): 49.0 ± 41.5 mg/dL | BG1 (Day 2, across meals): 169 ± 40.9 mg/dL | ΔBG1 (Day 2, across meals): 48.8 ± 37.9 mg/dL | BG1 (Day 3, across meals): 170 ± 40.9 mg/dL | ΔBG1 (Day 3, across meals): 51.8 ± 37.9 mg/dL | BG1 [3]: 165 ± 42.1 mg/dL | ΔBG1 [3]: 49.8 ± 39.0 mg/dL | BG1.5 (Day 1, across meals): 156 ± 51.2 mg/dL | ΔBG1.5 (Day 1, across meals): 47.5 ± 51.9 mg/dL | BG1.5 (Day 2, across meals): 167 ± 48.3 mg/dL | ΔBG1.5 (Day 2, across meals): 47.2 ± 44.8 mg/dL | BG1.5 (Day 3, across meals): 167 ± 48.3 mg/dL | ΔBG1.5 (Day 3, across meals): 48.9 ± 48.1 mg/dL | BG1.5 [3]: 163 ± 49.3 mg/dL | ΔBG1.5 [3]: 47.9 ± 48.2 mg/dL | BG2 (Day 1, across meals): 152 ± 60.1 mg/dL | ΔBG2 (Day 1, across meals): 43.7 ± 62.7 mg/dL | BG2 (Day 2, across meals): 164 ± 54.2 mg/dL | ΔBG2 (Day 2, across meals): 44.0 ± 51.2 mg/dL | BG2 (Day 3, across meals): 164 ± 52.3 mg/dL | ΔBG2 (Day 3, across meals): 46.2 ± 52.4 mg/dL | BG2 [3]: 160 ± 55.7 mg/dL | ΔBG2 [3]: 44.6 ± 55.6 mg/dL | BG4 (Day 1, across meals): 139 ± 52.4 mg/dL | ΔBG4 (Day 1, across meals): 29.7 ± 53.3 mg/dL | BG4 (Day 2, across meals): 148 ± 59.4 mg/dL | ΔBG4 (Day 2, across meals): 27.7 ± 56.8 mg/dL | BG4 (Day 3, across meals): 153 ± 48.9 mg/dL | ΔBG4 (Day 3, across meals): 35.1 ± 47.2 mg/dL | BG4 [3]: 146 ± 53.7 mg/dL | ΔBG4 [3]: 30.8 ± 52.3 mg/dL | Intra-subject variability of BG (time 1 h, across all study days and meals): 20.2 %CV | Intra-subject variability of BG (time 1.5 h, across all study days and meals): 24.5 %CV | Intra-subject variability of ΔBG (time 2 h, across all study days and meals): 61.4 %CV
